Reference: patent US9963445B2, “Chemical compounds” (SYNGENTA PARTICIPATIONS AG, priority 2013, dated 2018)

Tested on: Abutilon theophrasti
Experiment: Pre-emergence herbicidal activity, glasshouse pot test
Assay type: in vivo
Conditions: pre-emergence spray, rate 1000 g/ha, evaluated after 13 days, scale 0-5
In short: (§1)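 Glasshouse conditions were 24/16 °C day/night with 14 h light and 65% humidity throughout. Soil was sprayed before emergence, one day after sowing, using an acetone/water (50:50) formulation with 0.5% Tween 20; injury was scored 0–5 after 13 days.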

SMILES | ABUTH damage score, application pre-emergence
COC1=C(C)C(O)N(c2cc(OC(F)(F)F)ccn2)C1=O (stereo not drawn) [AI3] | 4
COC1=C(C)C(O)N(c2cc(C(C)(C)C)ccn2)C1=O (stereo not drawn) [AI4] | 4
CCOC1=C(C)C(O)N(c2cc(C(F)(F)F)ccn2)C1=O (stereo not drawn) [AI5, 4-ethoxy-2-hydroxy-3-methyl-1-[4-(trifluoromethyl)-2-pyridyl]-2H-pyrrol-5-one] | 4
COC1=C(C)C(O)N(c2cc(C(F)(F)F)c(C(=O)NC(C)(C)C)cn2)C1=O (stereo not drawn) [AI6] | 5
COC1=C(C)C(O)N(c2cc3c(cn2)CCCC3)C1=O (stereo not drawn) [AI7] | 1
CCN(CC)C(=O)c1cnc(N2C(=O)C(OC)=C(C)C2O)cc1C(F)(F)F (stereo not drawn) [AI9] | 5

Tested on: zea mays
Experiment: as above
Assay type: in vivo
Conditions: pre-emergence spray, rate 1000 g/ha, evaluated after 13 days, scale 0-5
In short: as §1

SMILES | ZEAMX damage score, application pre-emergence
COC1=C(C)C(O)N(c2cc(OC(F)(F)F)ccn2)C1=O (stereo not drawn) [AI3] | 2
COC1=C(C)C(O)N(c2cc(C(C)(C)C)ccn2)C1=O (stereo not drawn) [AI4] | 1
CCOC1=C(C)C(O)N(c2cc(C(F)(F)F)ccn2)C1=O (stereo not drawn) [AI5, 4-ethoxy-2-hydroxy-3-methyl-1-[4-(trifluoromethyl)-2-pyridyl]-2H-pyrrol-5-one] | 3
COC1=C(C)C(O)N(c2cc(C(F)(F)F)c(C(=O)NC(C)(C)C)cn2)C1=O (stereo not drawn) [AI6] | 4
COC1=C(C)C(O)N(c2cc3c(cn2)CCCC3)C1=O (stereo not drawn) [AI7] | 0
CCN(CC)C(=O)c1cnc(N2C(=O)C(OC)=C(C)C2O)cc1C(F)(F)F (stereo not drawn) [AI9] | 3

Tested on: Amaranthus retroflexus
Experiment: as above
Assay type: in vivo
Conditions: pre-emergence spray, rate 1000 g/ha, evaluated after 13 days, scale 0-5
In short: as §1

SMILES | AMARE damage score, application pre-emergence
COC1=C(C)C(O)N(c2cc(OC(F)(F)F)ccn2)C1=O (stereo not drawn) [AI3] | 5
COC1=C(C)C(O)N(c2cc(C(C)(C)C)ccn2)C1=O (stereo not drawn) [AI4] | 5
CCOC1=C(C)C(O)N(c2cc(C(F)(F)F)ccn2)C1=O (stereo not drawn) [AI5, 4-ethoxy-2-hydroxy-3-methyl-1-[4-(trifluoromethyl)-2-pyridyl]-2H-pyrrol-5-one] | 5
COC1=C(C)C(O)N(c2cc(C(F)(F)F)c(C(=O)NC(C)(C)C)cn2)C1=O (stereo not drawn) [AI6] | 5
COC1=C(C)C(O)N(c2cc3c(cn2)CCCC3)C1=O (stereo not drawn) [AI7] | 3
CCN(CC)C(=O)c1cnc(N2C(=O)C(OC)=C(C)C2O)cc1C(F)(F)F (stereo not drawn) [AI9] | 5

Tested on: Setaria faberi
Experiment: as above
Assay type: in vivo
Conditions: pre-emergence spray, rate 1000 g/ha, evaluated after 13 days, scale 0-5
In short: as §1

SMILES | SETFA damage score, application pre-emergence
COC1=C(C)C(O)N(c2cc(OC(F)(F)F)ccn2)C1=O (stereo not drawn) [AI3] | 4
COC1=C(C)C(O)N(c2cc(C(C)(C)C)ccn2)C1=O (stereo not drawn) [AI4] | 5
CCOC1=C(C)C(O)N(c2cc(C(F)(F)F)ccn2)C1=O (stereo not drawn) [AI5, 4-ethoxy-2-hydroxy-3-methyl-1-[4-(trifluoromethyl)-2-pyridyl]-2H-pyrrol-5-one] | 5
COC1=C(C)C(O)N(c2cc(C(F)(F)F)c(C(=O)NC(C)(C)C)cn2)C1=O (stereo not drawn) [AI6] | 5
COC1=C(C)C(O)N(c2cc3c(cn2)CCCC3)C1=O (stereo not drawn) [AI7] | 5
CCN(CC)C(=O)c1cnc(N2C(=O)C(OC)=C(C)C2O)cc1C(F)(F)F (stereo not drawn) [AI9] | 4

Tested on: Alopecurus myosuroides
Experiment: as above
Assay type: in vivo
Conditions: pre-emergence spray, rate 1000 g/ha, evaluated after 13 days, scale 0-5
In short: as §1

SMILES | ALOMY damage score, application pre-emergence
COC1=C(C)C(O)N(c2cc(OC(F)(F)F)ccn2)C1=O (stereo not drawn) [AI3] | 3
COC1=C(C)C(O)N(c2cc(C(C)(C)C)ccn2)C1=O (stereo not drawn) [AI4] | 3
CCOC1=C(C)C(O)N(c2cc(C(F)(F)F)ccn2)C1=O (stereo not drawn) [AI5, 4-ethoxy-2-hydroxy-3-methyl-1-[4-(trifluoromethyl)-2-pyridyl]-2H-pyrrol-5-one] | 4
COC1=C(C)C(O)N(c2cc(C(F)(F)F)c(C(=O)NC(C)(C)C)cn2)C1=O (stereo not drawn) [AI6] | 4
COC1=C(C)C(O)N(c2cc3c(cn2)CCCC3)C1=O (stereo not drawn) [AI7] | 2
CCN(CC)C(=O)c1cnc(N2C(=O)C(OC)=C(C)C2O)cc1C(F)(F)F (stereo not drawn) [AI9] | 4

Tested on: Echinochloa crus-galli
Experiment: as above
Assay type: in vivo
Conditions: pre-emergence spray, rate 1000 g/ha, evaluated after 13 days, scale 0-5
In short: as §1

SMILES | ECHCG damage score, application pre-emergence
COC1=C(C)C(O)N(c2cc(OC(F)(F)F)ccn2)C1=O (stereo not drawn) [AI3] | 4
COC1=C(C)C(O)N(c2cc(C(C)(C)C)ccn2)C1=O (stereo not drawn) [AI4] | 4
CCOC1=C(C)C(O)N(c2cc(C(F)(F)F)ccn2)C1=O (stereo not drawn) [AI5, 4-ethoxy-2-hydroxy-3-methyl-1-[4-(trifluoromethyl)-2-pyridyl]-2H-pyrrol-5-one] | 4
COC1=C(C)C(O)N(c2cc(C(F)(F)F)c(C(=O)NC(C)(C)C)cn2)C1=O (stereo not drawn) [AI6] | 5
COC1=C(C)C(O)N(c2cc3c(cn2)CCCC3)C1=O (stereo not drawn) [AI7] | 5
CCN(CC)C(=O)c1cnc(N2C(=O)C(OC)=C(C)C2O)cc1C(F)(F)F (stereo not drawn) [AI9] | 5

Tested on: Abutilon theophrasti
Experiment: Post-emergence herbicidal activity, glasshouse pot test
Assay type: in vivo
Design: key: 0 = no damage to plant, 5 = total damage to plant
Conditions: Application post-emergence, rate 1000 g/ha, evaluated after 13 days
In short: (§2)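 Damage rated 0 (none) to 5 (total) 13 days after spraying. Plants were treated post-emergence at 8 days after sowing, using an acetone/water (50:50) formulation with 0.5% Tween 20 diluted to an aqueous spray.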

SMILES | ABUTH herbicidal damage score
COC1=C(C)C(O)N(c2cc(OC(F)(F)F)ccn2)C1=O (stereo not drawn) [AI3] | 4
COC1=C(C)C(O)N(c2cc(C(C)(C)C)ccn2)C1=O (stereo not drawn) [AI4] | 5
CCOC1=C(C)C(O)N(c2cc(C(F)(F)F)ccn2)C1=O (stereo not drawn) [AI5, 4-ethoxy-2-hydroxy-3-methyl-1-[4-(trifluoromethyl)-2-pyridyl]-2H-pyrrol-5-one] | 5
COC1=C(C)C(O)N(c2cc(C(F)(F)F)c(C(=O)NC(C)(C)C)cn2)C1=O (stereo not drawn) [AI6] | 5
COC1=C(C)C(O)N(c2cc3c(cn2)CCCC3)C1=O (stereo not drawn) [AI7] | 4
CCN(CC)C(=O)c1cnc(N2C(=O)C(OC)=C(C)C2O)cc1C(F)(F)F (stereo not drawn) [AI9] | 5

Tested on: zea mays
Experiment: as above
Assay type: in vivo
Design: key: 0 = no damage to plant, 5 = total damage to plant
Conditions: Application post-emergence, rate 1000 g/ha, evaluated after 13 days
In short: as §2

SMILES | ZEAMX herbicidal damage score
COC1=C(C)C(O)N(c2cc(OC(F)(F)F)ccn2)C1=O (stereo not drawn) [AI3] | 1
COC1=C(C)C(O)N(c2cc(C(C)(C)C)ccn2)C1=O (stereo not drawn) [AI4] | 3
CCOC1=C(C)C(O)N(c2cc(C(F)(F)F)ccn2)C1=O (stereo not drawn) [AI5, 4-ethoxy-2-hydroxy-3-methyl-1-[4-(trifluoromethyl)-2-pyridyl]-2H-pyrrol-5-one] | 3
COC1=C(C)C(O)N(c2cc(C(F)(F)F)c(C(=O)NC(C)(C)C)cn2)C1=O (stereo not drawn) [AI6] | 5
COC1=C(C)C(O)N(c2cc3c(cn2)CCCC3)C1=O (stereo not drawn) [AI7] | 1
CCN(CC)C(=O)c1cnc(N2C(=O)C(OC)=C(C)C2O)cc1C(F)(F)F (stereo not drawn) [AI9] | 4

Tested on: Amaranthus retroflexus
Experiment: as above
Assay type: in vivo
Design: key: 0 = no damage to plant, 5 = total damage to plant
Conditions: Application post-emergence, rate 1000 g/ha, evaluated after 13 days
In short: as §2

SMILES | AMARE herbicidal damage score
COC1=C(C)C(O)N(c2cc(OC(F)(F)F)ccn2)C1=O (stereo not drawn) [AI3] | 4
COC1=C(C)C(O)N(c2cc(C(C)(C)C)ccn2)C1=O (stereo not drawn) [AI4] | 5
CCOC1=C(C)C(O)N(c2cc(C(F)(F)F)ccn2)C1=O (stereo not drawn) [AI5, 4-ethoxy-2-hydroxy-3-methyl-1-[4-(trifluoromethyl)-2-pyridyl]-2H-pyrrol-5-one] | 5
COC1=C(C)C(O)N(c2cc(C(F)(F)F)c(C(=O)NC(C)(C)C)cn2)C1=O (stereo not drawn) [AI6] | 5
COC1=C(C)C(O)N(c2cc3c(cn2)CCCC3)C1=O (stereo not drawn) [AI7] | 3
CCN(CC)C(=O)c1cnc(N2C(=O)C(OC)=C(C)C2O)cc1C(F)(F)F (stereo not drawn) [AI9] | 5

Tested on: Setaria faberi
Experiment: as above
Assay type: in vivo
Design: key: 0 = no damage to plant, 5 = total damage to plant
Conditions: Application post-emergence, rate 1000 g/ha, evaluated after 13 days
In short: as §2

SMILES | SETFA herbicidal damage score
COC1=C(C)C(O)N(c2cc(OC(F)(F)F)ccn2)C1=O (stereo not drawn) [AI3] | 5
COC1=C(C)C(O)N(c2cc(C(C)(C)C)ccn2)C1=O (stereo not drawn) [AI4] | 5
CCOC1=C(C)C(O)N(c2cc(C(F)(F)F)ccn2)C1=O (stereo not drawn) [AI5, 4-ethoxy-2-hydroxy-3-methyl-1-[4-(trifluoromethyl)-2-pyridyl]-2H-pyrrol-5-one] | 4
COC1=C(C)C(O)N(c2cc(C(F)(F)F)c(C(=O)NC(C)(C)C)cn2)C1=O (stereo not drawn) [AI6] | 5
COC1=C(C)C(O)N(c2cc3c(cn2)CCCC3)C1=O (stereo not drawn) [AI7] | 5
CCN(CC)C(=O)c1cnc(N2C(=O)C(OC)=C(C)C2O)cc1C(F)(F)F (stereo not drawn) [AI9] | 5

Tested on: Alopecurus myosuroides
Experiment: as above
Assay type: in vivo
Design: key: 0 = no damage to plant, 5 = total damage to plant
Conditions: Application post-emergence, rate 1000 g/ha, evaluated after 13 days
In short: as §2

SMILES | ALOMY herbicidal damage score
COC1=C(C)C(O)N(c2cc(OC(F)(F)F)ccn2)C1=O (stereo not drawn) [AI3] | 5
COC1=C(C)C(O)N(c2cc(C(C)(C)C)ccn2)C1=O (stereo not drawn) [AI4] | 5
CCOC1=C(C)C(O)N(c2cc(C(F)(F)F)ccn2)C1=O (stereo not drawn) [AI5, 4-ethoxy-2-hydroxy-3-methyl-1-[4-(trifluoromethyl)-2-pyridyl]-2H-pyrrol-5-one] | 4
COC1=C(C)C(O)N(c2cc(C(F)(F)F)c(C(=O)NC(C)(C)C)cn2)C1=O (stereo not drawn) [AI6] | 5
COC1=C(C)C(O)N(c2cc3c(cn2)CCCC3)C1=O (stereo not drawn) [AI7] | 3
CCN(CC)C(=O)c1cnc(N2C(=O)C(OC)=C(C)C2O)cc1C(F)(F)F (stereo not drawn) [AI9] | 5

Tested on: Echinochloa crus-galli
Experiment: as above
Assay type: in vivo
Design: key: 0 = no damage to plant, 5 = total damage to plant
Conditions: Application post-emergence, rate 1000 g/ha, evaluated after 13 days
In short: as §2

SMILES | ECHCG herbicidal damage score
COC1=C(C)C(O)N(c2cc(OC(F)(F)F)ccn2)C1=O (stereo not drawn) [AI3] | 5
COC1=C(C)C(O)N(c2cc(C(C)(C)C)ccn2)C1=O (stereo not drawn) [AI4] | 5
CCOC1=C(C)C(O)N(c2cc(C(F)(F)F)ccn2)C1=O (stereo not drawn) [AI5, 4-ethoxy-2-hydroxy-3-methyl-1-[4-(trifluoromethyl)-2-pyridyl]-2H-pyrrol-5-one] | 5
COC1=C(C)C(O)N(c2cc(C(F)(F)F)c(C(=O)NC(C)(C)C)cn2)C1=O (stereo not drawn) [AI6] | 5
COC1=C(C)C(O)N(c2cc3c(cn2)CCCC3)C1=O (stereo not drawn) [AI7] | 5
CCN(CC)C(=O)c1cnc(N2C(=O)C(OC)=C(C)C2O)cc1C(F)(F)F (stereo not drawn) [AI9] | 5
